In ChEMBL document CHEMBL1134402, “Atropisomeric derivatives of 2',6'-disubstituted (R)-11-phenylaporphine: selective serotonin 5-HT(7) receptor antagonists” (J Med Chem, 2001):

Assays:
[1] = molecular target: D(2) dopamine receptor (Homo sapiens, UniProt P14416); assay: Displacement of [3H]raclopride from human dopamine receptor D2A expressed in mouse Ltk cells; type: cell-based
[2] = molecular target: 5-hydroxytryptamine receptor 7 (Rattus norvegicus, UniProt P32305); assay: Displacement of [3H]5-HT from rat 5-hydroxytryptamine 7 receptor expressed in CHO cells; type: cell-based
Chain of 5-hydroxytryptamine receptor 7 (P32305 whole entry): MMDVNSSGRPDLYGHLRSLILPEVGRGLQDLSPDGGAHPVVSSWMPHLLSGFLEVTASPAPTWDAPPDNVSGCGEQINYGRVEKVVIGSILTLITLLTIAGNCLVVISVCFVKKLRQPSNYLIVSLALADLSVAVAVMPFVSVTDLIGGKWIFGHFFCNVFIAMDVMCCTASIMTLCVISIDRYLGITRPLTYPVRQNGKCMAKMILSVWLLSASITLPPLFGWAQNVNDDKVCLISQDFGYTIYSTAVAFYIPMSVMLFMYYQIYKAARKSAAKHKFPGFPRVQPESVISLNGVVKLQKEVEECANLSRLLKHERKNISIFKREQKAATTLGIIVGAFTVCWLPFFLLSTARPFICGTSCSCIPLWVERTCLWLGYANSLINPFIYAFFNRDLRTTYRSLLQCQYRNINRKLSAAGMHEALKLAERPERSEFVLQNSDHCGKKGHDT

[3] = molecular target: T1, 5-hydroxytryptamine receptor 1A (Homo sapiens, UniProt P08908); assay: Displacement of [3H]8-OH-DPAT from human 5-hydroxytryptamine 1A receptor expressed in CHO cells; type: cell-based
T1 sequence (P08908 whole entry): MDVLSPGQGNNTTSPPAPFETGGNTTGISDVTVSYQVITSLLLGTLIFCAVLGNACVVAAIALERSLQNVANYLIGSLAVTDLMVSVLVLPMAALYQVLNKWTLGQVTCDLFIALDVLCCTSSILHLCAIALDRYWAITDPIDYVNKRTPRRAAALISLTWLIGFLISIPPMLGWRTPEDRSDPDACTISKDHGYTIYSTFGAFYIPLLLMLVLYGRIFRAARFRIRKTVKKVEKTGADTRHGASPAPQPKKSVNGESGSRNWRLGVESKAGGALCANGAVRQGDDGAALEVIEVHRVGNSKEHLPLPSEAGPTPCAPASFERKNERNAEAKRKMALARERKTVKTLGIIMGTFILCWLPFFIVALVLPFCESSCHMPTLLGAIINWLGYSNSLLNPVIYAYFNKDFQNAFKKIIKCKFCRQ

[4] = molecular target: 5-hydroxytryptamine receptor 7 (Rattus norvegicus) (UniProt P32305); assay: Percent inhibition of 5-HT7-induced stimulation of cAMP production in CHO cells expressing rat 5-HT receptors at a concentration of 10000 nM; type: cell-based
Chain of 5-hydroxytryptamine receptor 7 (Rattus norvegicus) (P32305 whole entry): as the sequence (P32305 whole entry) above

[5] = molecular target: 5-hydroxytryptamine receptor 7 (Rattus norvegicus) (UniProt P32305); assay: Percent inhibition of 5-HT7-induced stimulation of cAMP production in CHO cells expressing rat 5-HT receptors at a concentration of 1 nM; type: cell-based
[6] = molecular target: 5-hydroxytryptamine receptor 7 (Rattus norvegicus) (UniProt P32305); assay: Percent inhibition of 5-HT7-induced stimulation of cAMP production in CHO cells expressing rat 5-HT receptors at a concentration of 100 nM; type: cell-based
[7] = molecular target: 5-hydroxytryptamine receptor 7 (Rattus norvegicus) (UniProt P32305); settings: CHO; 10000 nM
[8] = molecular target: 5-hydroxytryptamine receptor 7 (Rattus norvegicus) (UniProt P32305); settings: CHO; 100 nM
[9] = molecular target: 5-hydroxytryptamine receptor 7 (Rattus norvegicus) (UniProt P32305); settings: CHO; 1 nM
[10] = molecular target: 5-hydroxytryptamine receptor 7 (Rattus norvegicus) (UniProt P32305); assay: Percent inhibition of 5-HT7-induced stimulation of cAMP production in CHO cells expressing rat 5-HT receptors by 1 nM 5-HT.; type: cell-based
[11] = molecular target: 5-hydroxytryptamine receptor 7 (Rattus norvegicus) (UniProt P32305); assay: Percent inhibition of 5-HT7-induced stimulation of cAMP production in CHO cells expressing rat 5-HT receptors by 100 nM 5-HT.; type: cell-based
[12] = molecular target: 5-hydroxytryptamine receptor 7 (Rattus norvegicus) (UniProt P32305); assay: Percent inhibition of 5-HT7-induced stimulation of cAMP production in CHO cells expressing rat 5-HT receptors by 10000 nM 5-HT.; type: cell-based

Chain of D(2) dopamine receptor (P14416 whole entry): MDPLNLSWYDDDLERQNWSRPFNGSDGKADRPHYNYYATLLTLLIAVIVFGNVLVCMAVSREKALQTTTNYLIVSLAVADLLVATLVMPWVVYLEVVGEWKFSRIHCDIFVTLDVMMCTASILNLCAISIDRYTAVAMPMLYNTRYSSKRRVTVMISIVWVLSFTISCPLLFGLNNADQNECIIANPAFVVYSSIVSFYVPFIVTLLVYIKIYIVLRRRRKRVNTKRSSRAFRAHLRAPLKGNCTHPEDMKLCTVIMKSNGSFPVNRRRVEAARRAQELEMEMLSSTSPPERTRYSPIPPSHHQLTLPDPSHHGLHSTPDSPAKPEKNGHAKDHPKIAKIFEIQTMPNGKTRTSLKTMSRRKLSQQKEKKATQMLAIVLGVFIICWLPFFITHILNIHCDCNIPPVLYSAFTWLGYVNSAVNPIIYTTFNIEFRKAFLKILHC

Ki [1] [nM] | Ki [2] [nM] | Ki [3] [nM] | SMILES | also measured
2030 | 13 | 554 | COc1cccc(OC)c1-c1cccc2c1-c1cccc3c1[C@@H](C2)N(C)CC3 | 
498 | 3.79 | 142 | Cc1cccc(C#N)c1-c1cccc2c1-c1cccc3c1[C@@H](C2)N(C)CC3 (stereo in doubt; form 2) | 
2470 | 20.8 | 778 | Cc1cccc(C#N)c1-c1cccc2c1-c1cccc3c1[C@@H](C2)N(C)CC3 (stereo in doubt; form 1) [listing 1 of 2 here] | 
2500 | 23 | 48.8 | Cc1cccc(O)c1-c1cccc2c1-c1cccc3c1[C@@H](C2)N(C)CC3 (stereo in doubt; form 1) [listing 1 of 2 here] | 
 |  |  | Cc1cccc(O)c1-c1cccc2c1-c1cccc3c1[C@@H](C2)N(C)CC3 (stereo in doubt; form 2) [listing 1 of 2 here] | inhibition [4]: 100%; inhibition [5]: 21%; inhibition [6]: 43%
 |  |  | Cc1cccc(C#N)c1-c1cccc2c1-c1cccc3c1[C@@H](C2)N(C)CC3 (stereo in doubt; form 1) [listing 2 of 2 here] | inhibition [7]: 100%; inhibition [8]: 42%; inhibition [9]: 21%
 | 9.78 | 1.8 | CN1CCc2cccc3c2[C@H]1Cc1cccc(-c2ccccc2)c1-3 | inhibition [4]: 100%; inhibition [5]: 23%; inhibition [6]: 30%
> 1000 | 36.2 | 139 | CN1CCc2cccc3c2[C@H]1Cc1cccc(-c2c(O)cccc2O)c1-3 | 
 | 31.6 | > 7940 | Cc1cccc(S(=O)(=O)N(C)[C@H](C)CCN2CCC(C)CC2)c1 [SB-258719] | 
 |  |  | Cc1cccc(O)c1-c1cccc2c1-c1cccc3c1[C@@H](C2)N(C)CC3 (stereo in doubt; form 1) [listing 2 of 2 here] | inhibition [10]: 11%; inhibition [11]: 72%; inhibition [12]: 100%
3380 | 43.1 | 319 | Cc1cccc(O)c1-c1cccc2c1-c1cccc3c1[C@@H](C2)N(C)CC3 (stereo in doubt; form 2) [listing 2 of 2 here] | 

SMILES | Ki [1] [nM] | Ki [2] [nM] | Ki [3] [nM] | also measured
CN1CCc2cccc3c2[C@H]1Cc1cccc(-c2c(OS(=O)(=O)C(F)(F)F)cccc2OS(=O)(=O)C(F)(F)F)c1-3 | 2260 | 708 | > 10000 | 
O=C1Nc2cccc3c2[C@]1(CCCCN1CC=C(c2ccccc2)CC1)CCC3 | 105 | 3.31 | 170 | 
